# Experimental data: PMC12664493, “Asparagine endopeptidase (AEP) inhibitor formulation via zein-based nanoparticle improves the therapeutic efficacy toward Alzheimer's disease” (Neurotherapeutics, 2025)
# Several values for one entry are separate records, joined by “and”; a condition that tells them apart may be missing. Equal values may be shown once. Read-outs that look alike come from different tables or passages of the source.
# Key:
# [1] = Stability in human liver microsomes; type: in vitro ADME
# [2] = biological target: T1, AEP (Mus musculus, UniProt O89017); assay: Acute PD in 3xTg mice: brain AEP enzymatic activity and immunoblotting; type: in vivo; conditions: 2 h
# T1 construct: from tissue; host or cells: brain / hippocampus of 3xTg mice
# T1 sequence (O89017 18-435): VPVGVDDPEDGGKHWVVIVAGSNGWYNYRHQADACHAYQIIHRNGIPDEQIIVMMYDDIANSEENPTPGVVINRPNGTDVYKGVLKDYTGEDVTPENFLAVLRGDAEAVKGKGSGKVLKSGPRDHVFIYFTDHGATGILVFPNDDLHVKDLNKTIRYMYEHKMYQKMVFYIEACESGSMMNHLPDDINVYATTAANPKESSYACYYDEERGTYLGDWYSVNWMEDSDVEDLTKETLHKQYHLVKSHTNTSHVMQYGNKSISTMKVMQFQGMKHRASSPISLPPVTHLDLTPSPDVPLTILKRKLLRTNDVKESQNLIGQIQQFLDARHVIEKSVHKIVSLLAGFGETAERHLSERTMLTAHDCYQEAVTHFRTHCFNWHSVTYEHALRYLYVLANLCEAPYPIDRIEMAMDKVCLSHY
# [3] = Plasma protein binding, mouse; type: in vitro ADME
# [4] = biological target: T2, BCRP (Homo sapiens, UniProt Q9UNQ0); assay: Caco-2-BCRP assay with and without Ko143; type: in vitro ADME; conditions: for Papp A→B / Papp B→A / recovery: human
# T2 construct: endogenous in cells; host or cells: Caco-2
# T2 sequence (Q9UNQ0 1-655): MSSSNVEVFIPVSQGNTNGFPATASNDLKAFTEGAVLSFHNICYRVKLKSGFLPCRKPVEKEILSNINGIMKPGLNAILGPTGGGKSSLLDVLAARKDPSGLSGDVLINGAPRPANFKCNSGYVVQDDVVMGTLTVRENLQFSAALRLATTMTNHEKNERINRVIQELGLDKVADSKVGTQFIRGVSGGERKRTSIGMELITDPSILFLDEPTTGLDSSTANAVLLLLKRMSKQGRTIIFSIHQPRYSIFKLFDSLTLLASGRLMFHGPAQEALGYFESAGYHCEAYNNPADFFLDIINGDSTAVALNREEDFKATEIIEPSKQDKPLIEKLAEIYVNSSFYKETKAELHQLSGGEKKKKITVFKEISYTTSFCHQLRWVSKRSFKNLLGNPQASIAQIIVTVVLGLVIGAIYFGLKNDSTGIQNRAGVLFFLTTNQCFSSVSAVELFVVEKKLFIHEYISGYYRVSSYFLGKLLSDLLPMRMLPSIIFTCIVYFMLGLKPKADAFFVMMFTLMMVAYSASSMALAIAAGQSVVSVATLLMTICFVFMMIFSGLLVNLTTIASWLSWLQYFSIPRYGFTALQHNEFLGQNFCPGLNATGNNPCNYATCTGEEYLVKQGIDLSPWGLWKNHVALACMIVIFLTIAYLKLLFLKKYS
# [5] = Stability in mouse liver microsomes; type: in vitro ADME; conditions: read-out: Stability-Microsomes T1/2
# [6] = Stability in mouse plasma; type: in vitro ADME; conditions: read-out: Stability-Plasma T1/2
# [7] = Caco-2 permeability; type: in vitro ADME; conditions: human
# [8] = In vivo pharmacokinetics in CD-1 (ICR) mice, plasma and brain, LC-MS/MS; conditions: mouse
# From the text: (§1) Blood and brain tissues were collected at 0, 0.08, 0.25, 0.5, 1, 2, 4, and 8 h post-administration. For acute pharmacodynamic (PD) assessments, male and female 3xTg mice received oral doses of NP-11a-isopropyl at 7.5 mg/kg or 15 mg/kg, and blood and brain samples were collected 2 h after treatment.
# [9] = system: Aβ plaques; assay: Aβ PET (18F-AV45) in 3xTg mice after chronic treatment; type: in vivo, mouse; conditions: 7.5 mg/kg P.O. daily, one month
# From the text: as §1
# Mice were maintained under isoflurane inhalation anesthesia during all procedures to ensure stable physiological conditions for radiochemical administration, imaging, and data processing. PET imaging was conducted using a high-resolution small-animal scanner (microPET; spatial resolution: 1.0 mm). Following intravenous administration of 10–15 MBq of ^18F-florbetapir (AV45) in 100 μL saline via the tail vein, 20-min volumetric brain emission scans were acquired. Image reconstruction was performed using ordered-subset expectation maximization (OSEM) to optimize spatial resolution and signal-to-noise ratios. For quantitative analysis, standardized uptake value ratios (SUVRs) were calculated by normalizing 18F-AV45 uptake in target regions to the cerebellar reference tissue. A predefined volumetric region of interest (VOI) template was applied to ensure consistent anatomical localization across subjects. SUVR data were statistically analyzed using Amide 1.0.4–1 (San Diego, CA, USA), with results reported for cortical and subcortical regions implicated in amyloid pathology.
# [10] = biological target: T1, AEP; assay: Chronic one-month oral treatment of 3xTg mice: AEP activation and substrate cleavage; type: in vivo; conditions: 7.5 mg/kg P.O. daily
# [11] = biological target: hERG K+ channel (Homo sapiens, UniProt Q12809); assay: hERG inhibition assay
# hERG K+ channel, sequence (Q12809 whole entry): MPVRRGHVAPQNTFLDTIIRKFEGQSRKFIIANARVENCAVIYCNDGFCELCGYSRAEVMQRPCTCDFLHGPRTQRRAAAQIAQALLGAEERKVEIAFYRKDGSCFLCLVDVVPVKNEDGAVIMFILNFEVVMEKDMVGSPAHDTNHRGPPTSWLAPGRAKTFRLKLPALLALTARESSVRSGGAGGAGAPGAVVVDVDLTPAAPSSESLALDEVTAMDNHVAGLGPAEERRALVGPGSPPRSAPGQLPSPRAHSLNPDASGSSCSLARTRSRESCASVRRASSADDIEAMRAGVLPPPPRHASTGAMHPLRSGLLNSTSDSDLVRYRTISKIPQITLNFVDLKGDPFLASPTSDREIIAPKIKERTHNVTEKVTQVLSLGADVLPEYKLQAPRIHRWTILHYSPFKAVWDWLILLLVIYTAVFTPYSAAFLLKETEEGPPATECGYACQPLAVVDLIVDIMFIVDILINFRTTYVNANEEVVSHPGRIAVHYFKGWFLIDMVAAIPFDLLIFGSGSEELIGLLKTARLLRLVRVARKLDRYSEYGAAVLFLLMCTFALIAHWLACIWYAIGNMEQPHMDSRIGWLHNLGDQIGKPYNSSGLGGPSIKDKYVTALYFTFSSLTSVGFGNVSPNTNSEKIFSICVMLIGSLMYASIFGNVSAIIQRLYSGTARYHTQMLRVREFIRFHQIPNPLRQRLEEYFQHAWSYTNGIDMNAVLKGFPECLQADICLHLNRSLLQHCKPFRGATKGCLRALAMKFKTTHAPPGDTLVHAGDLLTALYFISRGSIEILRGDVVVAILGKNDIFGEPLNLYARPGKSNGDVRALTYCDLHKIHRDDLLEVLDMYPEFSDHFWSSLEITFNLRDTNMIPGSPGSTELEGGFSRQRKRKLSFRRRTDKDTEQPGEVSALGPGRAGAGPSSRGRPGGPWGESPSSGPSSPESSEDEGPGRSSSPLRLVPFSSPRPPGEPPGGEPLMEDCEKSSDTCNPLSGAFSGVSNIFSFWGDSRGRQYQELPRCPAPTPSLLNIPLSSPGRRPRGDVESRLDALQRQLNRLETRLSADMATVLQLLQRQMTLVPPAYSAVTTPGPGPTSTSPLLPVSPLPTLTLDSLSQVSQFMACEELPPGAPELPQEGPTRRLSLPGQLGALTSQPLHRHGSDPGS
# [12] = Stability in mouse hepatocytes; type: in vitro ADME
# [13] = Stability in human plasma; type: in vitro ADME; conditions: read-out: Stability-Plasma T1/2
# [14] = Plasma protein binding, human; type: in vitro ADME
# [15] = male, CD-1 (ICR), plasma, iv, I.V. 2 mg/kg
# [16] = male, CD-1 (ICR), plasma, po, P.O. 5 mg/kg
smiles,measurement,setting,value
CC(C)Nc1nnc(Nc2cc(CO)c(N3CCOCC3)c3nonc23)s1 [11a-isopropyl],microsomal CLint,[1],3.6 µL/min/mg
same,half-life,[1]; read-out: Stability-Microsomes T1/2,> 240 min
same,AEP enzymatic activity in the brain,"[2]; acute P.O. 7.5 and 15 mg/kg, dose-dependent",substantially inhibited
same,"Active AEP band intensity, hippocampus immunoblotting",[2]; acute P.O.,further suppressed
same,"Plasma Protein F u, plasma(%)",[3],20.4%
same,fraction unbound,"[3]; plasma, as a fraction, from Table S1, read-out: Unbound plasma fraction (fu, plasma)",0.204
same,BCRP substrate classification,[4],not a significant substrate of BCRP
same,Papp A→B,"[4]; Caco-2, with Ko143 2 μM",15.7 ×10⁻⁶ cm/s
same,Papp B→A,"[4]; Caco-2, with Ko143 2 μM",35.7 ×10⁻⁶ cm/s
same,recovery,"[4]; Caco-2, with Ko143 2 μM, Ko143 2 μM, read-out: Recovery (%) A→B",107%
same,recovery,"[4]; Caco-2, with Ko143 2 μM, Ko143 2 μM, read-out: Recovery (%) B→A",98.5%
same,Papp A→B,"[4]; Caco-2, Ko143 0 μM",12.1 ×10⁻⁶ cm/s
same,Papp B→A,"[4]; Caco-2, Ko143 0 μM",35.7 ×10⁻⁶ cm/s
same,recovery,"[4]; Caco-2, Ko143 0 μM, read-out: Recovery (%) A→B",91.8%
same,recovery,"[4]; Caco-2, Ko143 0 μM, read-out: Recovery (%) B→A",104%
same,half-life,[5],> 27.7 min
same,half-life,[6],> 480 min
same,Papp A→B,"[7]; a-b, first value of the cell",6.34 ×10⁻⁶ cm/s
same,Papp B→A,"[7]; value after the slash, head names only a-b, read-out: Permeability-Caco-2 Papp, second value of the cell (taken as b-a)",23.6 ×10⁻⁶ cm/s
same,MRT last,"[8]; male, CD-1 (ICR), brain, iv, I.V. 2 mg/kg, read-out: Brain MRT (0-t)",143 min
same,Tmax,"[8]; male, CD-1 (ICR), brain, iv, I.V. 2 mg/kg, read-out: Brain Tmax",4.8 min
same,MRT last,"[8]; male, CD-1 (ICR), brain, po, P.O. 5 mg/kg, read-out: Brain MRT (0-t)",130 min
same,Tmax,"[8]; male, CD-1 (ICR), brain, po, P.O. 5 mg/kg, read-out: Brain Tmax",11.6 min
same,half-life,"[8]; male, CD-1 (ICR), brain, iv, 2 mg/kg, I.V. 2 mg/kg, read-out: Brain t1/2 (converted)",~120 min
same,half-life,"[8]; male, CD-1 (ICR), brain, po, 5 mg/kg, P.O. 5 mg/kg, read-out: Brain t1/2 (converted)",144 min
same,clearance,"[8]; male, CD-1 (ICR), plasma, iv, 2 mg/kg, I.V. 2 mg/kg, read-out: Plasma CLz (converted)",13.8 mL/min/kg
same,half-life,"[8]; male, CD-1 (ICR), plasma, iv, 2 mg/kg, I.V. 2 mg/kg, read-out: Plasma t1/2 (converted)",53.4 min
same,bioavailability,"[8]; male, CD-1 (ICR), plasma, oral, 5 mg/kg, P.O. 5 mg/kg vs I.V. 2 mg/kg, read-out: F* (%) oral bioavailability",~67.2%
same,half-life,"[8]; male, CD-1 (ICR), plasma, po, 5 mg/kg, P.O. 5 mg/kg, read-out: Plasma t1/2 (converted)",~43.8 min
same,AUC(0-t),[8]; [15],2410 ng·h/mL
same,Cmax,[8]; [15],5160 ng/mL
same,MRT last,"[8]; male, CD-1 (ICR), plasma, iv, I.V. 2 mg/kg, read-out: Plasma MRT (0-t)",33.4 min
same,Tmax,"[8]; male, CD-1 (ICR), plasma, iv, I.V. 2 mg/kg, read-out: Plasma Tmax",4.8 min
same,AUC(0-t),[8]; [16],4050 ng·h/mL
same,Cmax,[8]; [16],4770 ng/mL
same,MRT last,"[8]; male, CD-1 (ICR), plasma, po, P.O. 5 mg/kg, read-out: Plasma MRT (0-t)",50.9 min
same,Tmax,"[8]; male, CD-1 (ICR), plasma, po, P.O. 5 mg/kg, read-out: Plasma Tmax",8.22 min
same,Brain AUC (0-t),"[8]; I.V. 2 mg/kg, 2 mg/kg",approximately 921.71 ng/mL·h
same,Brain Cmax,"[8]; I.V. 2 mg/kg, 2 mg/kg",306.77 ng/mL
same,Brain AUC (0-t),"[8]; P.O. 5 mg/kg, 5 mg/kg",~385.36 ng·h/mL and 385.358 ng·h/mL
same,Brain Cmax,"[8]; P.O. 5 mg/kg, 5 mg/kg",321.25 ng/mL and 321.248 ng/mL
same,Aβ PET (18F-AV45) SUVR,[9],significantly decreasing the PET signals
same,"AEP activation, APP N585 and Tau N368 fragmentation, hippocampus immunoblotting",[10],gradually reduced
same,IC50,[11],> 10 µM
same,hepatocyte CLint,[12],9 µL/min/1e6 cells
same,half-life,[12]; read-out: Stability-Hepatocytes T1/2,153 min
same,half-life,[13],> 480 min
same,"Plasma Protein F u, plasma(%)",[14],13.8%
